Read-outs that look alike come from different tables or passages of the source.
Tested on: adult daily cigarette smokers
[1] = drug reduction Day 35, first Insomnia listing, pooled blinded
[2] = drug reduction Day 35, pooled blinded
[3] = drug reduction Day 35, second Insomnia listing, pooled blinded
[4] = drug reduction Day 42, pooled blinded
[5] = drug reduction Day 49, pooled blinded
[6] = drug reduction Day 55, pooled blinded
[7] = drug reduction Day 58, pooled blinded
[8] = drug reduction Day 63, pooled blinded
[9] = follow up period, start day 86, resolution day 87, pooled blinded
[10] = follow up period, start day 87, resolution day 90, pooled blinded
[11] = follow up period, start day 87, resolution day 96, pooled blinded
[12] = follow up period, start day 102, resolution day 105, pooled blinded
[13] = follow up period, start day 104, resolution day 105, pooled blinded
[14] = follow up period, start day 107, resolution day 111, pooled blinded
[15] = follow up period, start day 112, resolution day 113, pooled blinded
[16] = follow up period, start day 115, resolution day 120, pooled blinded
[17] = follow up period, start day 119, resolution day 139, pooled blinded
[18] = follow up period, start day 146, no resolution day, pooled blinded
[19] = follow up period, start day 148, resolution day 152, pooled blinded
[20] = follow up period, start day 151, resolution day 161, pooled blinded
[21] = follow up period, start day 161, resolution day 161, pooled blinded
[22] = follow up period, start day 180, no resolution day, pooled blinded

Protocol: Subjects are randomized to one of the three arms A, B, or C. In Arm A, subjects are treated with a placebo for 12 weeks plus behavioral support. In Arm B, subjects are treated with 3.0 mg cytisinicline TID for 6 weeks followed by a placebo for 6 weeks plus behavioral support. In Arm C, subjects are treated with 3.0 mg cytisinicline TID for 12 weeks plus behavioral support.
The safety objectives of the study will be the following: • To evaluate the safety profile of 3.0 mg TID cytisinicline compared to placebo (e.g., Arm B versus Arm A and Arm C versus Arm A); • To compare the safety profiles of Arm B subjects versus Arm C subjects with respect to adverse events occurring after Week 6 on the study.
The population for this study will be male or female adults who are daily cigarette smokers, intending to quit smoking, and are willing to set a quit date that is within 5 to 7 days of the start of treatment. Study treatment will start the day after randomization.
Safety assessments at clinic visits will occur on Day 2 and Day 7 during Week 1 and then weekly throughout the Treatment Period. Laboratory hematology and chemistry assessments will be made on Day 7, Week 6, and Week 12 (End of Treatment “EOT”) during the Treatment Period. Any ongoing adverse events at Week 12 will be followed until resolved or determined to be chronic. The end of study is defined as the last follow-up visit (up to the Week 24 visit) for the last subject.
The Treatment Period will begin on the day after randomization. Study treatment will be blinded, and subjects will take one study tablet three times during the day, approximately 5 hours apart. Subjects randomly assigned to Arm A will take one placebo tablet at each dosing per day for 12 weeks. Arm B subjects will take one cytisinicline tablet at each dosing per day for the first 6 weeks followed by one placebo tablet at each dosing per day for the last 6 weeks. Arm C subjects will take one cytisinicline tablet at each dosing per day for 12 weeks.
Laboratory (hematology and chemistry) evaluations will be performed at the Week 1, Week 6, and Week 12 clinic visits using a central laboratory.
Safety will be assessed by consideration of all adverse events reported by or elicited from the subject and abnormalities detected on hematology and serum chemistry tests. Worsening of other pre-existing medical conditions and any changes to concomitant medications/treatments will also be taken into account in this evaluation.
Routine laboratory safety samples will be analyzed at screening and at clinic visits as identified in Table 15 for each subject by a central laboratory. […] Clinically significant abnormalities occurring during the study will be recorded on the AE page. The reference ranges for laboratory parameters will also be entered in the database and filed in the Investigator site file.
Safety assessments will include reported adverse events, laboratory test results, and vital signs. Safety variables will be summarized for the Safety Analysis Set (SAS), defined as all randomized subjects who take at least one dose of study drug.
Adverse events (AEs) will be coded using the MedDRA dictionary. Coding will include system organ class (SOC) and preferred term (PT). All verbatim descriptions and coded terms will be listed for all AEs.

`O=c1cccc2n1C[C@@H]1CNC[C@H]2C1` [cytisine, (−)-Cytisine] was tested, and the “Dose reduction for Insomnia: Outcome” value [1] was “Recovered/Resolved”, the “Dose reduction for Insomnia: Relatedness” value [1] was “Probable” and the “Dose reduction for Insomnia: Severity” value [1] was “Moderate”. The “Dose reduction for Burning Eyes: Outcome” value [2] was “Recovered/Resolved”, the “Dose reduction for Burning Eyes: Relatedness” value [2] was “Possible” and the “Dose reduction for Burning Eyes: Severity” value [2] was “Moderate”. The “Dose reduction for Headache: Outcome” value [2] was “Recovered/Resolved”, the “Dose reduction for Headache: Relatedness” value [2] was “Possible” and the “Dose reduction for Headache: Severity” value [2] was “Moderate”. For the same molecule, the “Dose reduction for Nausea: Outcome” value [2] was “Recovered/Resolved”, the “Dose reduction for Nausea: Relatedness” value [2] was “Possible” and the “Dose reduction for Nausea: Severity” value [2] was “Moderate”. For the same molecule, the “Dose reduction for Sinus Congestion: Outcome” value [2] was “Recovered/Resolved”, the “Dose reduction for Sinus Congestion: Relatedness” value [2] was “Possible” and the “Dose reduction for Sinus Congestion: Severity” value [2] was “Moderate”. For the same molecule, the “Dose reduction for Sinus Pressure: Outcome” value [2] was “Recovered/Resolved”, the “Dose reduction for Sinus Pressure: Relatedness” value [2] was “Possible” and the “Dose reduction for Sinus Pressure: Severity” value [2] was “Moderate”. For the same molecule, the “Dose reduction for Insomnia: Outcome” value [3] was “Recovered/Resolved”, the “Dose reduction for Insomnia: Relatedness” value [3] was “Possible” and the “Dose reduction for Insomnia: Severity” value [3] was “Moderate”. For the same molecule, the “Dose reduction for Difficulty Falling Asleep: Outcome” value [4] was “Recovered/Resolved”, the “Dose reduction for Difficulty Falling Asleep: Relatedness” value [4] was “Possible” and the “Dose reduction for Difficulty Falling Asleep: Severity” value [4] was “Moderate”. For the same molecule, the “Dose reduction for Restless Leg Syndrome: Outcome” value [5] was “Recovered/Resolved”, the “Dose reduction for Restless Leg Syndrome: Relatedness” value [5] was “Possible” and the “Dose reduction for Restless Leg Syndrome: Severity” value [5] was “Moderate”. For the same molecule, the “Dose reduction for Memory Loss: Outcome” value [6] was “Recovered/Resolved”, the “Dose reduction for Memory Loss: Relatedness” value [6] was “Possible” and the “Dose reduction for Memory Loss: Severity” value [6] was “Moderate”. For the same molecule, the “Dose reduction for Bilateral Foot Swelling: Outcome” value [7] was “Recovered/Resolved”, the “Dose reduction for Bilateral Foot Swelling: Relatedness” value [7] was “Possible” and the “Dose reduction for Bilateral Foot Swelling: Severity” value [7] was “Mild”. For the same molecule, the “Dose reduction for Facial Swelling (Forehead Area): Outcome” value [7] was “Recovered/Resolved”, the “Dose reduction for Facial Swelling (Forehead Area): Relatedness” value [7] was “Possible” and the “Dose reduction for Facial Swelling (Forehead Area): Severity” value [7] was “Mild”. The “Dose reduction for Right Hand Swelling: Outcome” value [7] was “Recovered/Resolved”, the “Dose reduction for Right Hand Swelling: Relatedness” value [7] was “Possible” and the “Dose reduction for Right Hand Swelling: Severity” value [7] was “Mild”. For the same molecule, the “Dose reduction for Headache: Outcome” value [8] was “Recovered/Resolved”, the “Dose reduction for Headache: Relatedness” value [8] was “Possible” and the “Dose reduction for Headache: Severity” value [8] was “Mild”. For the same molecule, the “Serious adverse event Post Surgical Complications: Causality” value [9] was “Not”, the “Serious adverse event Post Surgical Complications: Outcome” value [9] was “Fatal” and the “Serious adverse event Post Surgical Complications: Severity/Intensity” value [9] was “Severe”. For the same molecule, the “Serious adverse event Worsening Fatigue: Causality” value [10] was “Not”, the “Serious adverse event Worsening Fatigue: Outcome” value [10] was “Recovered/Resolved” and the “Serious adverse event Worsening Fatigue: Severity/Intensity” value [10] was “Moderate”. For the same molecule, the “Serious adverse event Coronary Atherosclerosis: Causality” value [11] was “Not”, the “Serious adverse event Coronary Atherosclerosis: Outcome” value [11] was “Recovered/Resolved” and the “Serious adverse event Coronary Atherosclerosis: Severity/Intensity” value [11] was “Severe”. The “Serious adverse event Acute Cholecystitis: Causality” value [12] was “Not”, the “Serious adverse event Acute Cholecystitis: Outcome” value [12] was “Recovered/Resolved” and the “Serious adverse event Acute Cholecystitis: Severity/Intensity” value [12] was “Moderate”. The “Serious adverse event Transient Ischemic Attack: Causality” value [13] was “Not”, the “Serious adverse event Transient Ischemic Attack: Outcome” value [13] was “Recovered/Resolved” and the “Serious adverse event Transient Ischemic Attack: Severity/Intensity” value [13] was “Severe”. For the same molecule, the “Serious adverse event Perforated Bowel: Causality” value [14] was “Not”, the “Serious adverse event Perforated Bowel: Outcome” value [14] was “Recovered/Resolved” and the “Serious adverse event Perforated Bowel: Severity/Intensity” value [14] was “Severe”. The “Serious adverse event Abscess on Right Groin Area: Causality” value [15] was “Not”, the “Serious adverse event Abscess on Right Groin Area: Outcome” value [15] was “Recovered/Resolved” and the “Serious adverse event Abscess on Right Groin Area: Severity/Intensity” value [15] was “Severe”. The “Serious adverse event COPD Exacerbation: Causality” value [16] was “Not”, the “Serious adverse event COPD Exacerbation: Outcome” value [16] was “Recovered/Resolved” and the “Serious adverse event COPD Exacerbation: Severity/Intensity” value [16] was “Severe”. For the same molecule, the “Serious adverse event Sepsis: Causality” value [16] was “Unlikely”, the “Serious adverse event Sepsis: Outcome” value [16] was “Recovered/Resolved” and the “Serious adverse event Sepsis: Severity/Intensity” value [16] was “Severe”. For the same molecule, the “Serious adverse event Pneumonia: Causality” value [17] was “Not”, the “Serious adverse event Pneumonia: Outcome” value [17] was “Recovered/Resolved” and the “Serious adverse event Pneumonia: Severity/Intensity” value [17] was “Severe”. For the same molecule, the “Serious adverse event Acute Kidney Injury Superimposed to Chronic Kidney Disease: Causality” value [18] was “Unlikely”, the “Serious adverse event Acute Kidney Injury Superimposed to Chronic Kidney Disease: Outcome” value [18] was “Not Recovered/Not” and the “Serious adverse event Acute Kidney Injury Superimposed to Chronic Kidney Disease: Severity/Intensity” value [18] was “Severe”. For the same molecule, the “Serious adverse event Ureterolithiasis: Causality” value [18] was “Unlikely”, the “Serious adverse event Ureterolithiasis: Outcome” value [18] was “Not Recovered/Not” and the “Serious adverse event Ureterolithiasis: Severity/Intensity” value [18] was “Severe”. The “Serious adverse event Pneumonia: Causality” value [19] was “Not”, the “Serious adverse event Pneumonia: Outcome” value [19] was “Recovered/Resolved” and the “Serious adverse event Pneumonia: Severity/Intensity” value [19] was “Severe”. The “Serious adverse event Dyspnea: Causality” value [20] was “Unlikely”, the “Serious adverse event Dyspnea: Outcome” value [20] was “Recovered/Resolved” and the “Serious adverse event Dyspnea: Severity/Intensity” value [20] was “Severe”. For the same molecule, the “Serious adverse event Stab Wound: Causality” value [21] was “Not”, the “Serious adverse event Stab Wound: Outcome” value [21] was “Fatal” and the “Serious adverse event Stab Wound: Severity/Intensity” value [21] was “Severe”. The “Serious adverse event Dyspnea: Causality” value [22] was “Not”, the “Serious adverse event Dyspnea: Outcome” value [22] was “Not Recovered/Not” and the “Serious adverse event Dyspnea: Severity/Intensity” value [22] was “Severe”. The “Psychiatric adverse event Abnormal dreams, %” value (pooled blinded data) was “(7.5) %”, the “Psychiatric adverse event Acute stress disorder, %” value (pooled blinded data) was “(0.1) %” and the “Psychiatric adverse event Adjustment disorder with depressed mood, %” value (pooled blinded data) was “(0.1) %”. The “Psychiatric adverse event Affect lability, %” value (pooled blinded data) was “(0.1) %”, the “Psychiatric adverse event Anhedonia, %” value (pooled blinded data) was “(0.5) %” and the “Psychiatric adverse event Anxiety, %” value (pooled blinded data) was “(2.5) %”. The “Psychiatric adverse event Attention deficit hyperactivity disorder, %” value (pooled blinded data) was “(0.1) %”, the “Psychiatric adverse event Bipolar disorder, %” value (pooled blinded data) was “(0.1) %” and the “Psychiatric adverse event Bruxism, %” value (pooled blinded data) was “(0.1) %”. The “Psychiatric adverse event Depressed mood, %” value (pooled blinded data) was “(0.5) %”, the “Psychiatric adverse event Depression, %” value (pooled blinded data) was “(2.0) %” and the “Psychiatric adverse event Initial insomnia, %” value (pooled blinded data) was “(0.3) %”. For the same molecule, the “Psychiatric adverse event Insomnia, %” value (pooled blinded data) was “(10.2) %”, the “Psychiatric adverse event Irritability, %” value (pooled blinded data) was “(1.7) %” and the “Psychiatric adverse event Major depression, %” value (pooled blinded data) was “(0.1) %”. The “Psychiatric adverse event Mood swings, %” value (pooled blinded data) was “(0.1) %”, the “Psychiatric adverse event Nightmare, %” value (pooled blinded data) was “(1.1) %” and the “Psychiatric adverse event Panic attack, %” value (pooled blinded data) was “(0.3) %”. For the same molecule, the “Psychiatric adverse event Paranoia, %” value (pooled blinded data) was “(0.1) %”, the “Psychiatric adverse event Post-traumatic stress disorder, %” value (pooled blinded data) was “(0.1) %” and the “Psychiatric adverse event Restlessness, %” value (pooled blinded data) was “(0.3) %”. For the same molecule, the “Psychiatric adverse event Sleep disorder, %” value (pooled blinded data) was “(0.5) %”, the “Psychiatric adverse event Somnambulism, %” value (pooled blinded data) was “(0.1) %” and the “Psychiatric adverse event Stress, %” value (pooled blinded data) was “(0.1) %”. For the same molecule, the “Psychiatric adverse event Suicidal ideation, %” value (pooled blinded data) was “(0.1) %”, the “Psychiatric adverse event Suicide attempt, %” value (pooled blinded data) was “(0.3) %” and the “Psychiatric disorders (any psychiatric reported adverse event), %” value (pooled blinded data) was “(22.9) %”. The “Abnormal lab AE related to study drug, Elevated ALT Level: Outcome of Adverse Event” value (start Day 29, dose not changed) was “Recovered/Resolved”, the “Abnormal lab AE related to study drug, Elevated ALT Level: Severity” value (start Day 29, dose not changed) was “Mild” and the “Abnormal lab AE related to study drug, Elevated AST Level: Outcome of Adverse Event” value (start Day 29, dose not changed) was “Recovered/Resolved”. The “Abnormal lab AE related to study drug, Elevated AST Level: Severity” value (start Day 29, dose not changed) was “Mild”, the “Abnormal lab AE related to study drug, Elevated Hemoglobin: Outcome of Adverse Event” value (start Day 85) was “Recovered/Resolved” and the “Abnormal lab AE related to study drug, Low White Blood Count: Outcome of Adverse Event” value (start Day 85) was “Not Recovered/Not”. For the same molecule, the “Abnormal lab AE related to study drug, Elevated ALT: Outcome of Adverse Event” value (start Day 169) was “Not Recovered/Not”, the “Abnormal lab AE related to study drug, Elevated ALT: Severity” value (start Day 169) was “Moderate” and the “Abnormal lab AE related to study drug, Low White Blood Count: Parameter value at AE” value (value at screening 5.1 × 10^9/L, start Day 85) was 2.5e+09 L⁻¹. The “Abnormal lab AE related to study drug, Elevated ALT Level: Parameter value at AE” value (value at screening 25 IU/L, start Day 29, dose not changed) was 195 IU/L, the “Abnormal lab AE related to study drug, Elevated AST Level: Parameter value at AE” value (value at screening 29 IU/L, start Day 29, dose not changed) was 129 IU/L and the “Abnormal lab AE related to study drug, Elevated ALT: Parameter value at AE” value (value at screening 50 IU/L, start Day 169) was 82 IU/L. The “Abnormal lab AE related to study drug, Elevated Hemoglobin: Parameter value at AE” value (value at screening 158 g/L, start Day 85) was 130 g/L.
